# Source: ChEMBL document CHEMBL5154644, “Design, Synthesis, and Structure-Activity Relationship Optimization of Pyrazolopyrimidine Amide Inhibitors of Phosphoinositide 3-Kinase γ (PI3Kγ)” (J Med Chem, 2022)
# System: not listed separately
# Test: Metabolic stability in rat hepatocyte assessed as intrinsic clearance per 10^8 cells at 0.5 uM by LC-MS/MS analysis
# Assay type: ADME, cell-based
# Settings: hepatocytes
row,SMILES,hepatocyte intrinsic clearance [µL/min]
1,Cc1cc(-c2ccn3nc(N)c(C(=O)N[C@H]4C[C@H](O)C4)c3n2)cc2c1C(=O)N([C@@H](C)C1CC1)C2,15.7
2,Cc1cc(-c2ccn3nc(N)c(C(=O)N[C@H]4CNC(=O)C4)c3n2)cc2c1C(=O)N([C@@H](C)C1CC1)C2,2.73
3,Cc1cc(-c2ccn3ncc(C(=O)Nc4cnn(C)c4)c3n2)cc2c1C(=O)N([C@@H](C)C1CC1)C2,12.2

# Second part, the compound after the results:
row,hepatocyte intrinsic clearance [µL/min],SMILES
1,4.91,CNS(=O)(=O)c1cc(-c2ccn3nc(N)c(C(=O)NC4CC4)c3n2)cc2c1C(=O)N([C@@H](C)C1CC1)C2
2,< 1.2,C[C@@H](C1CC1)N1Cc2cc(-c3ccn4nc(N)c(C(=O)NC5CC5)c4n3)cc(S(C)(=O)=O)c2C1=O

# Species: Homo sapiens
# Test: Selectivity ratio of IC50 for inhibition of PI3Kalpha (unknown origin) to IC50 for inhibition of PI3Kgamma (unknown origin)
# Settings: not given
row,Ratio IC50,SMILES
1,148,C[C@@H](C1CC1)N1Cc2cc(-c3ccn4nc(N)c(C(=O)NC5CC5)c4n3)cc(S(C)(=O)=O)c2C1=O
2,568,Cc1cc(-c2ccn3nc(N)c(C(=O)N[C@H]4CNC(=O)C4)c3n2)cc2c1C(=O)N([C@@H](C)C1CC1)C2

# Biological target: T1, Phosphatidylinositol 4,5-bisphosphate 3-kinase catalytic subunit gamma isoform (Homo sapiens, UniProt P48736)
# Test: Inhibition of PI3Kgamma (unknown origin) in […] stimulated human THP-1 cells assessed as reduction in Akt phosphorylation level at Ser473 residue preincubated for 60 mins followed by rhMCP-1 stimulation and measured after 2 mins by AlphaLisa assay
# Assay type: cell-based
# Settings: not given
# T1 sequence (P48736 whole entry, canonical isoform): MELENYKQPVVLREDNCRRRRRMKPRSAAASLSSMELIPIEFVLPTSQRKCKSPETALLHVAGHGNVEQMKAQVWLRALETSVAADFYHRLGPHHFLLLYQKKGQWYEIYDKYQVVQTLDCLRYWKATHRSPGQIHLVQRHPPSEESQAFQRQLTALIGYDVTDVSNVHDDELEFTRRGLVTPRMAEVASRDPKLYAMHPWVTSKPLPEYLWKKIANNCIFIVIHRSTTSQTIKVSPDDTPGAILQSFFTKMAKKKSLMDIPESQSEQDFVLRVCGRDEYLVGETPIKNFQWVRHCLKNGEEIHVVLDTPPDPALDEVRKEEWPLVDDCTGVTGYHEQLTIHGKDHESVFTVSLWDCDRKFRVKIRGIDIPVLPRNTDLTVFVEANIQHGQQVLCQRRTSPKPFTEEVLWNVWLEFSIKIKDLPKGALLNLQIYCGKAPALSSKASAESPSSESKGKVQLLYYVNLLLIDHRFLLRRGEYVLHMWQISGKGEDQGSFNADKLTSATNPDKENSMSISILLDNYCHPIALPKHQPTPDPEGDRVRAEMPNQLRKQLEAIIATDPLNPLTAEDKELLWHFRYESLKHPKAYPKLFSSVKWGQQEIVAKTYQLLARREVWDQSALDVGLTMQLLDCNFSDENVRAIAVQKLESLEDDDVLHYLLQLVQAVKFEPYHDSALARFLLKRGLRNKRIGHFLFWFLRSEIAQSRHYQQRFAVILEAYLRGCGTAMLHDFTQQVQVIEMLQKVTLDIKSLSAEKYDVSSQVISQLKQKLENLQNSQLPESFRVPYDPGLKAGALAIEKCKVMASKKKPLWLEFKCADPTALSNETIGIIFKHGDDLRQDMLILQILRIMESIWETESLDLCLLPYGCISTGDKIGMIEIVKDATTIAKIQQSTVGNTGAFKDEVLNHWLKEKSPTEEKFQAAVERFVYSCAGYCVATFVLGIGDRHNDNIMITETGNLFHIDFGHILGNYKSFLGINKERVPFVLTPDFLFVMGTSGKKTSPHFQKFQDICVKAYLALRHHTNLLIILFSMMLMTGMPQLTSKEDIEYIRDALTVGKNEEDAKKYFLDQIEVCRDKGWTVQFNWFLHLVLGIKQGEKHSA
row,SMILES,IC50 [nM]
1,Cc1cc(-c2ccn3nc(N)c(C(=O)N[C@H]4CNC(=O)C4)c3n2)cc2c1C(=O)N([C@@H](C)C1CC1)C2,110
2,Cc1cc(-c2ccn3ncc(C(=O)Nc4cnn(C)c4)c3n2)cc2c1C(=O)N([C@@H](C)C1CC1)C2,638

# More lines, now with the values ahead:
row,IC50 [nM],SMILES
1,36,CNS(=O)(=O)c1cc(-c2ccn3nc(N)c(C(=O)NC4CC4)c3n2)cc2c1C(=O)N([C@@H](C)C1CC1)C2
2,43,C[C@@H](C1CC1)N1Cc2cc(-c3ccn4nc(N)c(C(=O)NC5CC5)c4n3)cc(S(C)(=O)=O)c2C1=O

# Biological target: T1, Phosphatidylinositol 4,5-bisphosphate 3-kinase catalytic subunit gamma isoform
# Test: Inhibition of PI3Kgamma (unknown origin) using PIP2 as substrate preincubated for 1 hr followed by substrate addition and measured after 60 mins in presence of ATP by ADP-glo assay
# Settings: not given
row,SMILES,IC50 [nM]
1,Cc1cc(-c2ccn3nc(N)c(C(=O)N[C@H]4CNC(=O)C4)c3n2)cc2c1C(=O)N([C@@H](C)C1CC1)C2,1.8
2,Cc1cc(-c2ccn3ncc(C(=O)Nc4cnn(C)c4)c3n2)cc2c1C(=O)N([C@@H](C)C1CC1)C2,34.1

# Other lines, results leading:
row,IC50 [nM],SMILES
1,2.7,CNS(=O)(=O)c1cc(-c2ccn3nc(N)c(C(=O)NC4CC4)c3n2)cc2c1C(=O)N([C@@H](C)C1CC1)C2
2,2.4,C[C@@H](C1CC1)N1Cc2cc(-c3ccn4nc(N)c(C(=O)NC5CC5)c4n3)cc(S(C)(=O)=O)c2C1=O

# System: not listed separately
# Test: Hepatic clearance in Sprague-Dawley rat by LC-MS/MS analysis
# Assay type: ADME
# Settings: in vivo
row,SMILES,CLH [mL/min/kg]
1,Cc1cc(-c2ccn3nc(N)c(C(=O)N[C@H]4C[C@H](O)C4)c3n2)cc2c1C(=O)N([C@@H](C)C1CC1)C2,40
2,Cc1cc(-c2ccn3nc(N)c(C(=O)N[C@H]4CNC(=O)C4)c3n2)cc2c1C(=O)N([C@@H](C)C1CC1)C2,73.3
3,Cc1cc(-c2ccn3ncc(C(=O)Nc4cnn(C)c4)c3n2)cc2c1C(=O)N([C@@H](C)C1CC1)C2,48.3

# Continued, values first:
row,CLH [mL/min/kg],SMILES
1,35,CNS(=O)(=O)c1cc(-c2ccn3nc(N)c(C(=O)NC4CC4)c3n2)cc2c1C(=O)N([C@@H](C)C1CC1)C2
2,88.3,C[C@@H](C1CC1)N1Cc2cc(-c3ccn4nc(N)c(C(=O)NC5CC5)c4n3)cc(S(C)(=O)=O)c2C1=O

# Biological target: Phosphatidylinositol 4,5-bisphosphate 3-kinase catalytic subunit alpha isoform (Homo sapiens, UniProt P42336)
# Test: Inhibition of PI3Kalpha (unknown origin) using PIP2 as substrate preincubated for 1 hr followed by substrate addition and measured after 60 mins in presence of ATP by ADP-glo assay
# Settings: not given
# Sequence of Phosphatidylinositol 4,5-bisphosphate 3-kinase catalytic subunit alpha isoform (P42336 whole entry, canonical isoform): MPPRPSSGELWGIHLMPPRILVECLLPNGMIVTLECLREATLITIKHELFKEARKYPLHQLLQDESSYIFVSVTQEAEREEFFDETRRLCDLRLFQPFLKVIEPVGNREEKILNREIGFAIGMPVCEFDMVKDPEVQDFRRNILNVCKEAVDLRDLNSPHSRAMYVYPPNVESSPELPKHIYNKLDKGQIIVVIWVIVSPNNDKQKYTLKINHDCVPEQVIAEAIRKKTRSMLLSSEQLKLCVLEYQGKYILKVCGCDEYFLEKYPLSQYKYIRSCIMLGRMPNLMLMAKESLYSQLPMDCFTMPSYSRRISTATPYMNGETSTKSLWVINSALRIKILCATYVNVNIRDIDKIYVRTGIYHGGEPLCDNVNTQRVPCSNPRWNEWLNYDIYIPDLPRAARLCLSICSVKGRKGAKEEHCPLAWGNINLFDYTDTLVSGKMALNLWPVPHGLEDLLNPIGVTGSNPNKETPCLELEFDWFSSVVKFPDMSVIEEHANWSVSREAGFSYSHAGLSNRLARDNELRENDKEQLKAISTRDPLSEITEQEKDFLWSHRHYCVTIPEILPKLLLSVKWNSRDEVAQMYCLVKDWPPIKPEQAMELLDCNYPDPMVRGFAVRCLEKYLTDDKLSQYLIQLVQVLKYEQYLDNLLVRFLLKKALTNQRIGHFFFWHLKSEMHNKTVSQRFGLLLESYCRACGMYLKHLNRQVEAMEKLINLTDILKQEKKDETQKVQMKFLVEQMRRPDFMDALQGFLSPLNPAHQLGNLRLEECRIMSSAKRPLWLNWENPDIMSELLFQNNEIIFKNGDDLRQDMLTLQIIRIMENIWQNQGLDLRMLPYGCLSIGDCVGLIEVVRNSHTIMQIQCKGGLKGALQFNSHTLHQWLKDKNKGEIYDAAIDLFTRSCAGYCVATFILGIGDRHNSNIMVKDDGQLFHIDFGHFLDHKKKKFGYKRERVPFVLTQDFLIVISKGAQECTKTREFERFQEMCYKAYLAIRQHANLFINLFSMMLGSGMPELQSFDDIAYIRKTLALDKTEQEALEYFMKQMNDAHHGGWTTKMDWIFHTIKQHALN
row,IC50 [nM],SMILES
1,519,CNS(=O)(=O)c1cc(-c2ccn3nc(N)c(C(=O)NC4CC4)c3n2)cc2c1C(=O)N([C@@H](C)C1CC1)C2
2,351,C[C@@H](C1CC1)N1Cc2cc(-c3ccn4nc(N)c(C(=O)NC5CC5)c4n3)cc(S(C)(=O)=O)c2C1=O
3,995,Cc1cc(-c2ccn3nc(N)c(C(=O)N[C@H]4CNC(=O)C4)c3n2)cc2c1C(=O)N([C@@H](C)C1CC1)C2

# System: not listed separately
# Test: Metabolic stability in human hepatocytes assessed as intrinsic clearance per 10^6 cells at 0.5 uM by LC-MS/MS analysis
# Assay type: ADME, cell-based, Hepatocyte
# Settings: read-out: CLH
row,SMILES,hepatocyte CLint at 0.5 µM [µL/min/1e6 cells]
1,Cc1cc(-c2ccn3nc(N)c(C(=O)N[C@H]4C[C@H](O)C4)c3n2)cc2c1C(=O)N([C@@H](C)C1CC1)C2,11.3
2,Cc1cc(-c2ccn3nc(N)c(C(=O)N[C@H]4CNC(=O)C4)c3n2)cc2c1C(=O)N([C@@H](C)C1CC1)C2,< 1.2
3,Cc1cc(-c2ccn3ncc(C(=O)Nc4cnn(C)c4)c3n2)cc2c1C(=O)N([C@@H](C)C1CC1)C2,7.31

# Next, values leading:
row,hepatocyte CLint at 0.5 µM [µL/min/1e6 cells],SMILES
1,4.46,CNS(=O)(=O)c1cc(-c2ccn3nc(N)c(C(=O)NC4CC4)c3n2)cc2c1C(=O)N([C@@H](C)C1CC1)C2
2,< 1.2,C[C@@H](C1CC1)N1Cc2cc(-c3ccn4nc(N)c(C(=O)NC5CC5)c4n3)cc(S(C)(=O)=O)c2C1=O

# Biological target: CYP3A4 (Homo sapiens, UniProt P08684)
# Test: in vitro
# Settings: human liver microsomes, probe midazolam
# Description: Time dependent inhibition of CYP3A4 in human liver microsomes at 10 uM using midazolam as substrate preincubated for 30 mins in presence of NADPH by LC/MS/MS analysis relative to control
# Sequence of CYP3A4 (P08684 whole entry): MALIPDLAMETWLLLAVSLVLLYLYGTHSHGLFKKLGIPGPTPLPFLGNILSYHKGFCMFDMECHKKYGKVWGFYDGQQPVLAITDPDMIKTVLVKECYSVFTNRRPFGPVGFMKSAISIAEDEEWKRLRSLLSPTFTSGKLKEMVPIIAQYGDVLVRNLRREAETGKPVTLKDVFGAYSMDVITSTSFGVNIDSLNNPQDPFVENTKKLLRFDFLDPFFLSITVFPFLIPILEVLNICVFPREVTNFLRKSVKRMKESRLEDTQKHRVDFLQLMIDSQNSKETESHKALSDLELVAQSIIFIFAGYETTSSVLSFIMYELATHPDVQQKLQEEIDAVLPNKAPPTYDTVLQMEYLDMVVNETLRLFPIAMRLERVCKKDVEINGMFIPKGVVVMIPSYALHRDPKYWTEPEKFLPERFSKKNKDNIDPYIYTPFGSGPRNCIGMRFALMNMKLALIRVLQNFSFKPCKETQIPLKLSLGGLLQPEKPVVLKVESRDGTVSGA
row,SMILES,"inhibition at 30 min, 10 µM [%]"
1,Cc1cc(-c2ccn3nc(N)c(C(=O)N[C@H]4C[C@H](O)C4)c3n2)cc2c1C(=O)N([C@@H](C)C1CC1)C2,14
2,Cc1cc(-c2ccn3nc(N)c(C(=O)N[C@H]4CNC(=O)C4)c3n2)cc2c1C(=O)N([C@@H](C)C1CC1)C2,4
3,Cc1cc(-c2ccn3ncc(C(=O)Nc4cnn(C)c4)c3n2)cc2c1C(=O)N([C@@H](C)C1CC1)C2,33

# More lines, now with the values ahead:
row,"inhibition at 30 min, 10 µM [%]",SMILES
1,34,CNS(=O)(=O)c1cc(-c2ccn3nc(N)c(C(=O)NC4CC4)c3n2)cc2c1C(=O)N([C@@H](C)C1CC1)C2
2,4,C[C@@H](C1CC1)N1Cc2cc(-c3ccn4nc(N)c(C(=O)NC5CC5)c4n3)cc(S(C)(=O)=O)c2C1=O

# Biological target: T2, Phosphatidylinositol 4,5-bisphosphate 3-kinase catalytic subunit delta isoform (Homo sapiens, UniProt O00329)
# T2 sequence (O00329 whole entry): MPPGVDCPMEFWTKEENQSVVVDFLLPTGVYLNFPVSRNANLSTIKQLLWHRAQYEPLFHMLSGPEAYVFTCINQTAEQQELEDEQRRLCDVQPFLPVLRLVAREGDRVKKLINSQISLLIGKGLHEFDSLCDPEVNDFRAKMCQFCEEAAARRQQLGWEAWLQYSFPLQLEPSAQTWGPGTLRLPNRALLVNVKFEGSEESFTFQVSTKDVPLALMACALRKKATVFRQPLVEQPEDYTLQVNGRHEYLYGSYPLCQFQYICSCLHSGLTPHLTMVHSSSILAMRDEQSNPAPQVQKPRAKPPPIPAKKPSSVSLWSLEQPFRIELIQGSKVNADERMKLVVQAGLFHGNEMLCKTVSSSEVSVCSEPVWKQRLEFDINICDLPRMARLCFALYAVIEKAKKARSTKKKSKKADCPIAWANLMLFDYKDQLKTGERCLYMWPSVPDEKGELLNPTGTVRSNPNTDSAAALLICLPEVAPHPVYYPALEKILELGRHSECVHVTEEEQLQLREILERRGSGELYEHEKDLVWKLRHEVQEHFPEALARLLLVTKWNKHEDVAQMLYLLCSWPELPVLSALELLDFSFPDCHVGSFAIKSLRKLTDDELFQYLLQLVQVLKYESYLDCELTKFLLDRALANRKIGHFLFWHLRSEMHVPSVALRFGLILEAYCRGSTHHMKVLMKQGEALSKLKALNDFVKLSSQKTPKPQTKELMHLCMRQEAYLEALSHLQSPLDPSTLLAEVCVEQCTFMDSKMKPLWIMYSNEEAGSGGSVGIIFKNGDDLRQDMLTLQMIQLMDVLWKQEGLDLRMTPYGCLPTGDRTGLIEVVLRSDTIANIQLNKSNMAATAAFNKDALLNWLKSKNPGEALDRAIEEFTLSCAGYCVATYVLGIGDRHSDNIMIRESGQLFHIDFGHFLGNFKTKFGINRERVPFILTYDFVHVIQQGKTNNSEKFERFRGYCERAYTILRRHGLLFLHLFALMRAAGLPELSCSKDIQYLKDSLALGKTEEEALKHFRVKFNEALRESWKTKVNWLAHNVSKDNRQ
# Test: Inhibition of PI3Kdelta (unknown origin) using PIP2 as substrate preincubated for 1 hr followed by substrate addition and measured after 60 mins in presence of ATP by ADP-glo assay
# Settings: not given
row,IC50 [nM],SMILES
1,256,CNS(=O)(=O)c1cc(-c2ccn3nc(N)c(C(=O)NC4CC4)c3n2)cc2c1C(=O)N([C@@H](C)C1CC1)C2
2,560,C[C@@H](C1CC1)N1Cc2cc(-c3ccn4nc(N)c(C(=O)NC5CC5)c4n3)cc(S(C)(=O)=O)c2C1=O
3,769,Cc1cc(-c2ccn3nc(N)c(C(=O)N[C@H]4CNC(=O)C4)c3n2)cc2c1C(=O)N([C@@H](C)C1CC1)C2

# Species: Homo sapiens
# Test: Selectivity ratio of IC50 for inhibition of PI3Kdelta (unknown origin) to IC50 for inhibition of PI3Kgamma (unknown origin)
# Settings: not given
row,Ratio IC50,SMILES
1,96,CNS(=O)(=O)c1cc(-c2ccn3nc(N)c(C(=O)NC4CC4)c3n2)cc2c1C(=O)N([C@@H](C)C1CC1)C2
2,236,C[C@@H](C1CC1)N1Cc2cc(-c3ccn4nc(N)c(C(=O)NC5CC5)c4n3)cc(S(C)(=O)=O)c2C1=O
3,439,Cc1cc(-c2ccn3nc(N)c(C(=O)N[C@H]4CNC(=O)C4)c3n2)cc2c1C(=O)N([C@@H](C)C1CC1)C2
